Source: US20260335278A1, “PHYTOCHEMICAL FORMULATIONS FOR TREATING STRESS AND ANXIETY” (GBS GLOBAL BIOPHARMA, INC., priority 2022, published 2026)
“Also recorded” adds a separate entry of the source.

Tests used:
zebrafish larvae [1] = experiment: Zebrafish models of stress and anxiety, overall verdict (Light/Dark Stress Response and thigmotaxis); type: in vivo; conditions: for Anti-Anxiety Potential?: API used singly
Description: (§1) The validation process for the phytochemicals derived from Piper methysticum, other Piper plant family members, and non-Piper medicinal plants and fungi includes testing the selected phytochemical drug candidates as singles, doubles, and triples in two complementary zebrafish models of stress and anxiety. These two complementary assays are the Light/Dark Stress Response test that is illustrated in FIG. 5 (after the 90 min study of the effect of the compounds and mixtures on Baseline Activity) and the Thigmotaxis assay, as illustrated in FIG. 61A and FIG. 61B, which is also known as the wall flower effect, like the social anxiety of humans. Zebrafish larvae show a clear and distinct pattern of swimming in response to rapidly alternating light and dark conditions in the Light/Dark Response testing, which trigger a flight or fight response and darting behavior indicative of great stress and anxiety. The Light/Dark testing uses a control group to automatically track, using an automatic tracking device, the larval behavior in response to dark to light conditions. The thigmotaxis assay also uses automatic tracking and appropriate controls. In multiple embodiments additional Zebrafish larvae are given various concentrations of the selected phytochemicals from Table 1 for tracking Light/Dark Responses or Thigmotactic behavioral changes in the treated zebrafish larvae. Table 2A and Table 2B summarize the results from both assays when the individual phytochemicals are exposed to the: Baseline Activity (90 minutes in the light), Light/Dark Stress Response (5 min alternating pulses of dark and light for 30 min.), and Thigmotaxis Activity (% of time in the light center of the chamber (anxiety inducing) versus % of time near the dark (soothing) wall).
Additionally, testing is done with mixtures of these same selected phytochemicals from P. methysticum and other plants selected by our in silico analyses. The testing results are analyzed using artificial intelligence systems to rank effectiveness in reducing the Light/Dark response and thigmotactic behavior for the
The A1 enabled drug discovery platform database search data was evaluated to select the best drug candidates from: A Piper methysticum, B. within the Piper plant family (>200 Piper spp.), or C. traditional medicines to begin testing […] (API) singles, doubles, and triples in two complementary zebrafish models of anxiety light/dark startle response testing and thigmotaxis assays.
(§2) The present invention includes a process to discover new pharmaceutical medicines for the treatment of stress, anxiety and anxiety-related disorders in a human. The preclinical testing included the effects of these 14 individual phytochemicals and 300 ratio-controlled mixtures of these phytochemicals in assays measuring the behavioral stress response patterns of zebrafish larvae. Larval behavior is assessed with at least one functional assay of stress or anxiety following acute exposure to each phytochemical sample formulated. Stereotypical basal activity patterns of zebrafish will be assessed to determine the potential side effects of the phytochemical samples in a concentration dependent manner for each compound on two zebrafish models of stress and anxiety: 1) the Light/Dark Stress Response (5 min alternating pulses of light and dark) in small to med well plates (96-48 well plates), and 2) Thigmotaxis assays in large well plates with 50% of the swimming surface colored dark around the margins of the well in large (24-12 well plates) will be assessed for their efficacy in testing the phytochemicals.
The discovery methods of the present invention include testing the effects of up to 20 phytochemicals and 40 mixtures of the phytochemicals on behavioral stress response patterns of zebrafish larvae. Larval behavior was assessed with an automated video tracking system following acute exposure to each phytochemical sample. […]

zebrafish larvae [2] = experiment: Light/Dark Stress Response (5 min alternating pulses of dark and light for 30 min); type: in vivo; design: key to Light/Dark Stress Response: +: statistically significant increase; −−: statistically significant decrease
Description: as §1, §2
(§3) The discovery methods of the present invention include testing the effects of up to 20 phytochemicals and 40 mixtures of the phytochemicals on behavioral stress response patterns of zebrafish larvae. Larval behavior was assessed with an automated video tracking system following acute exposure to each phytochemical sample. Stereotypical basal activity patterns of larvae were assessed to determine the concentration dependent effect of each compound. A zebrafish model of thigmotaxis in large well plates (24-12 well plates) was assessed for their efficacy in testing the phytochemicals. In the discovery method, fertilized eggs were kept on a re-circulating system in baskets until use at 120 hpf (5 days). At 120 hpf, larvae were loaded into 48 well plates in buffered fish media and acclimated to the plate in a heated light incubator for 2 hours. Larvae were acutely exposed with drug or controls at a 10× concentration and the plate was quickly transferred to a behavioral tracking system. Acute behavioral run was 90 minutes (baseline activity) in the light followed by alternating 5 minute bins (total 2 hours). […]

zebrafish larvae [3] = experiment: Baseline activity / baseline exposure (90 min continuous light), zebrafish larvae; type: in vivo; design: key to Baseline Exposure: +: statistically significant increase; −−: statistically significant decrease
Description: as §1, §2, §3

zebrafish larvae [4] = experiment: Thigmotaxis assay; type: in vivo; design: key: +: statistically significant increase; −−: statistically significant decrease
Description: as §1, §2, §3

MAO-A = conditions: cited from earlier work
MAO-B = conditions: cited from earlier work

Row | Molecule | Anti-Anxiety Potential? (zebrafish larvae [1]) | Therapeutic Potential (zebrafish larvae [1]; vehicle not given) | Light/Dark Stress Response (zebrafish larvae [2]; High) | Light/Dark Stress Response (zebrafish larvae [2]; Med) | Light/Dark Stress Response (5 min light/dark pulses) (zebrafish larvae [2]; vehicle not given) | Baseline Exposure (zebrafish larvae [3]; Med) | baseline Activity (90 min light) (zebrafish larvae [3]; vehicle not given) | Light/Dark Stress Response (zebrafish larvae [2]; Low) | Light/Dark Stress Response (5 min light/dark pulses) (zebrafish larvae [2]; vehicle 1% MeOH) | Thigmotaxis Model (zebrafish larvae [4]; High) | Baseline Exposure (zebrafish larvae [3]; High) | Baseline Exposure (zebrafish larvae [3]; Low) | baseline Activity (90 min light) (zebrafish larvae [3]; vehicle 1% MeOH) | Therapeutic Potential (zebrafish larvae [1]; vehicle 1% MeOH) | Approx. Dose (cell or animal experiments), MAO-A (MAO-A) | Approx. Dose (cell or animal experiments), MAO-B (MAO-B) | Therapeutic Potential (zebrafish larvae [1]; vehicle 0.5% MeOH) | Light/Dark Stress Response (5 min light/dark pulses) (zebrafish larvae [2]; vehicle 0.5% MeOH) | baseline Activity (90 min light) (zebrafish larvae [3]; vehicle 0.5% MeOH) | Thigmotaxis Model (zebrafish larvae [4]; Med)
1 | CCCCCCCCCCCCCCCC(=O)NCCO [N-palmitoyl ethanolamide (PEA), N-palmitoyl ethanolamide] | No | No | + | + | stress response sometimes increased | + | baseline activity not like controls; also recorded: (increased at all concentrations) |  |  |  |  |  |  |  |  |  |  |  |  | 
2 | C=C(C)[C@@H]1CCC(C)=C[C@H]1c1c(O)cc(CCCCC)cc1O [cannabidiol (CBD), cannabidiol, reference compound] | Yes |  | −− | −− |  | −− |  | + | stress response is reduced | −− | −− | + | baseline activity not like controls; also recorded: (increased at low concentrations,; also recorded: sedating at higher concentrations) |  |  |  |  |  |  | 
3 | COc1c(O)cc(O)c2c(=O)cc(-c3ccccc3)oc12 [Wogonin (hydrate), wogonin] | No |  |  |  |  | + |  |  | no reduction in stress response |  | + |  | baseline activity not like controls; also recorded: (increased at med/high | No |  |  |  |  |  | 
4 | farnesene | Yes |  | −− |  |  | + |  |  | no reduction in stress response |  | + |  |  | No |  |  |  |  |  | 
5 | COc1cc(/C=C/C(=O)CC(=O)/C=C/c2ccc(O)c(OC)c2)ccc1O [curcumin] | No |  | −− |  |  | + |  |  | stress response reduced in highest |  | + |  | baseline activity not like controls; also recorded: (increased at med/high; also recorded: conc., but baseline activity is concerning | No, sedative effect | MAOA 9.01 μM, MAOB | 2.55 µM |  |  |  | 
6 | COC1=CC(=O)O[C@@H](/C=C/c2ccc3c(c2)OCO3)C1 [R-(+)-methysticin] | No |  |  |  |  |  |  |  | stress response is reduced, but high |  | −− | + | baseline activity levels reduced; also recorded: (evidence of sedation) | No, sedative effect | MAO-A 8.12 μM, | MAO-B 0.5 μM | No | no reduction in stress response | baseline activity levels reduced; also recorded: (evidence of sedation) | 
7 | COC1=CC(=O)O[C@@H](CCc2ccccc2)C1 [(S)-(+)-7,8-dihydrokavain] | Yes |  |  |  |  | −− |  |  | stress response trending down, but high |  | −− | + | baseline activity levels reduced; also recorded: (evidence of sedation) | No | MAO-A none, | MAO-B 8.23 μM | No | no reduction in stress response | baseline activity is close to controls; also recorded: (slight increase initially) | 
8 | C=CCc1ccc(OC)cc1 [methyl chavicol (4-allylanisole), 4-allylanisole] | No |  | + |  |  | −− |  |  | no reduction in stress response, some |  | −− |  | baseline activity not like controls; also recorded: (decreased at high concentrations) | No |  |  |  |  |  | 
9 | COc1cc(/C=C/C(=O)N2CCC=CC2=O)cc(OC)c1OC [piperlongumine] | Yes |  | −− |  |  | + |  | + | stress response is reduced | −− |  |  | baseline activity not like controls; also recorded: (increased at low concentrations,; also recorded: sedating at higher concentrations) |  |  |  |  |  |  | −−
10 | C=C1CC/C=C(\C)CC[C@@H]2[C@@H]1CC2(C)C [beta caryophyllene] | No |  | −− |  |  | + |  | + | stress response reduced in highest |  | + | + | baseline activity not like controls; also recorded: (increased at all concentrations); also recorded: conc., but baseline activity is concerning | No |  |  |  |  |  | 
11 | O=c1cc(-c2ccccc2)oc2cc(O)c(O)c(O)c12 [bacalein] | Yes |  | −− | −− |  | + |  |  | stress response is reduced, but sedation |  | −− |  | baseline activity not like controls; also recorded: (increased at low concentrations,; also recorded: sedating at higher concentrations) |  |  |  |  |  |  | 
